According to patent US20240207410A1, “STABILIZED LIQUID COMPOSITIONS COMPRISING A LEVODOPA-TYROSINE CONJUGATE AND USES THEREOF” (NeuroDerm, Ltd., priority 2021, published 2024):
Where a SMILES comes first, the peptide text is derived from it. [ ]: non-standard residue; d: D form. Dopa = N[C@@H](Cc1ccc(O)c(O)c1)C(=O)O

Tests used:
[1] = system: red blood cells (RBC); experiment: Blood/plasma ratio, partitioning into red blood cells, human blood ex vivo; assay type: in vitro ADME; settings: human blood
[2] = PK of LD following 18-hr SC administration of LD-Tyr in a formulation comprising ethanol (Example 22); assay type: in vivo, domestic pig; settings: for AUC(0-t) / Cmax / Tmax: pig, plasma, analyte LD-Tyr, 18-hr continuous SC, formulation comprising ethanol
Protocol: The objective of this study is to determine the pharmacokinetics (PK) of LD-Tyr following an 18-hr continuous subcutaneous (SC) administration in domestic pigs of a formulation comprising 30& LD-Tyr and ethanol. Table 53 provides the LD-Tyr formulation tested in this study.
Animals were dosed with 2700 or 5400 mg of LD-Tyr in the formulation of Table 53 in an 18-hr continuous subcutaneous administration in an infusion volume of 9 or 18 ml (9 mL×2 sites).

[3] = system: red blood cells (RBC); experiment: Blood/plasma ratio, partitioning into red blood cells, rat blood ex vivo; assay type: in vitro ADME
[4] = 2700 mg, LD-Tyr/CD daily dose 2700/117 mg, n = 5
[5] = 5400 mg, LD-Tyr/CD daily dose 5400/234 mg, n = 3

N[C@@H](Cc1ccc(O)c(O)c1)C(=O)N[C@@H](Cc1ccc(O)cc1)C(=O)O [LD-Tyr, levodopa-tyrosine (LD-Tyr) conjugate of the formula (II)] (H-[Dopa]-Tyr-OH)
RBC binding [1]: no RBC binding
KRBC/PL ([1]; all measured): below one
dose proportionality ([2]; 2700 and 5400 mg, 18-hr continuous SC administration): dose proportionality
AUC(0-t) [2, 4]: 8210 ± 4120 ng·h/mL
Cmax [2, 4]: 707 ± 283 ng/mL
Tmax [2, 4]: 14 h
AUC(0-t) [2, 5]: 21200 ± 8570 ng·h/mL
Cmax [2, 5]: 1610 ± 902 ng/mL
Tmax [2, 5]: 14 h
KRBC/PL versus time of incubation ([3]; rat blood): increased with the time of incubation
RBC binding ([3]; rat blood): limited RBC binding
partition coefficient between RBC and plasma (KRBC/PL) ([3]; rat blood, 50, 150 and 2500 ng/mL): below five
